In PubChem BioAssay (NCI):
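At the GI50, growth is halved. At the TGI there is no net growth.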

Key:
Assay in all cases: NCI anticancer screen, dose series, 384-well format
SN12C renal = system: SN12C renal
UACC-62 melanoma = system: UACC-62 melanoma
K-562 leukemia = system: K-562 leukemia
EKVX NSCLC = system: EKVX NSCLC
SR leukemia = system: SR leukemia
LOX IMVI melanoma = system: LOX IMVI melanoma
HCT-15 colon = system: HCT-15 colon
HT29 colon = system: HT29 colon
HOP-62 NSCLC = system: HOP-62 NSCLC
HCT-116 colon = system: HCT-116 colon
PC-3 prostate = system: PC-3 prostate
SK-OV-3 ovarian = system: SK-OV-3 ovarian
U251 glioblastoma = system: U251 glioblastoma
NCI/ADR-RES ovarian = system: NCI/ADR-RES ovarian
HOP-92 NSCLC = system: HOP-92 NSCLC
HS 578T breast = system: HS 578T breast
MDA-MB-231 breast = system: MDA-MB-231 breast
ACHN renal = system: ACHN renal
NCI-H226 lung = system: NCI-H226 lung
MALME-3M melanoma = system: MALME-3M melanoma
MDA-MB-435 melanoma = system: MDA-MB-435 melanoma
SW-620 colon = system: SW-620 colon
SNB-19 CNS = system: SNB-19 CNS
RXF 393 renal = system: RXF 393 renal
IGROV1 ovarian = system: IGROV1 ovarian
OVCAR-3 ovarian = system: OVCAR-3 ovarian
COLO 205 colon = system: COLO 205 colon
MCF7 breast = system: MCF7 breast
CCRF-CEM leukemia = system: CCRF-CEM leukemia
OVCAR-8 ovarian = system: OVCAR-8 ovarian
SK-MEL-2 melanoma = system: SK-MEL-2 melanoma
NCI-H522 lung = system: NCI-H522 lung
SK-MEL-5 melanoma = system: SK-MEL-5 melanoma
OVCAR-5 ovarian = system: OVCAR-5 ovarian
SK-MEL-28 melanoma = system: SK-MEL-28 melanoma
KM12 colon = system: KM12 colon
A498 renal = system: A498 renal
BT-549 breast = system: BT-549 breast
TK-10 renal = system: TK-10 renal
786-0 renal = system: 786-0 renal
SF-539 CNS = system: SF-539 CNS
HCC-2998 colon = system: HCC-2998 colon
SF-268 CNS = system: SF-268 CNS
MDA-MB-468 breast = system: MDA-MB-468 breast
HL-60(TB) leukemia = system: HL-60(TB) leukemia
RPMI-8226 leukemia = system: RPMI-8226 leukemia
OVCAR-4 ovarian = system: OVCAR-4 ovarian

C[C@@H]1CN(C(=O)c2ccc(NC(=O)c3cc(O[C@H](C)c4c(Cl)ccc(F)c4Cl)c(N)nn3)cc2)C[C@H](C)N1
GI50 (SN12C renal): 1.82 µM
TGI (SN12C renal): 11.7 µM
GI50 (UACC-62 melanoma): 1.34 µM
TGI (UACC-62 melanoma): 2.89 µM
GI50 (K-562 leukemia): 0.152 µM
TGI (K-562 leukemia): 0.319 µM
GI50 (EKVX NSCLC): 1.52 µM
TGI (EKVX NSCLC): 5.93 µM
TGI (SR leukemia): 0.0109 µM
GI50 (LOX IMVI melanoma): 1.26 µM
TGI (LOX IMVI melanoma): 2.52 µM
GI50 (HCT-15 colon): 2.46 µM
TGI (HCT-15 colon): 6.88 µM
GI50 (HT29 colon): 1.22 µM
TGI (HT29 colon): 2.59 µM
GI50 (HOP-62 NSCLC): 2.42 µM
TGI (HOP-62 NSCLC): 7.03 µM
GI50 (HCT-116 colon): 1.41 µM
TGI (HCT-116 colon): 4.34 µM
GI50 (PC-3 prostate): 2.58 µM
TGI (PC-3 prostate): 7.16 µM
GI50 (SK-OV-3 ovarian): 5.26 µM
TGI (SK-OV-3 ovarian): 16.2 µM
GI50 (U251 glioblastoma): 2 µM
TGI (U251 glioblastoma): 5.25 µM
GI50 (NCI/ADR-RES ovarian): 14.8 µM
TGI (NCI/ADR-RES ovarian): 28.2 µM
GI50 (HOP-92 NSCLC): 0.66 µM
TGI (HOP-92 NSCLC): 2.42 µM
GI50 (HS 578T breast): 1.8 µM
TGI (HS 578T breast): 3.44 µM
GI50 (MDA-MB-231 breast): 1.74 µM
TGI (MDA-MB-231 breast): 5.52 µM
GI50 (ACHN renal): 3.05 µM
TGI (ACHN renal): 11.1 µM
GI50 (NCI-H226 lung): 2.12 µM
TGI (NCI-H226 lung): 8.92 µM
GI50 (MALME-3M melanoma): 1.44 µM
TGI (MALME-3M melanoma): 3.08 µM
GI50 (MDA-MB-435 melanoma): 1.61 µM
TGI (MDA-MB-435 melanoma): 6.93 µM
GI50 (SW-620 colon): 1.69 µM
TGI (SW-620 colon): 3.48 µM
GI50 (SNB-19 CNS): 4.02 µM
TGI (SNB-19 CNS): 13.5 µM
GI50 (RXF 393 renal): 1.74 µM
TGI (RXF 393 renal): 3.27 µM
GI50 (IGROV1 ovarian): 2.36 µM
TGI (IGROV1 ovarian): 10.2 µM
GI50 (OVCAR-3 ovarian): 2.75 µM
TGI (OVCAR-3 ovarian): 7.2 µM
GI50 (COLO 205 colon): 1.33 µM
TGI (COLO 205 colon): 3.94 µM
GI50 (MCF7 breast): 0.845 µM
TGI (MCF7 breast): 4.77 µM
GI50 (CCRF-CEM leukemia): 0.395 µM
TGI (CCRF-CEM leukemia): 1.01 µM
GI50 (OVCAR-8 ovarian): 3.44 µM
TGI (OVCAR-8 ovarian): 10.3 µM
GI50 (SK-MEL-2 melanoma): 1.77 µM
TGI (SK-MEL-2 melanoma): 4.27 µM
GI50 (NCI-H522 lung): 1.99 µM
TGI (NCI-H522 lung): 7.16 µM
GI50 (SK-MEL-5 melanoma): 1.53 µM
TGI (SK-MEL-5 melanoma): 3.48 µM
GI50 (OVCAR-5 ovarian): 1.54 µM
TGI (OVCAR-5 ovarian): 4.7 µM
GI50 (SK-MEL-28 melanoma): 2.82 µM
TGI (SK-MEL-28 melanoma): 7.32 µM
GI50 (KM12 colon): 0.0407 µM
TGI (KM12 colon): 5.37 µM
GI50 (A498 renal): 2.04 µM
TGI (A498 renal): 3.88 µM
GI50 (BT-549 breast): 2.39 µM
TGI (BT-549 breast): 4.27 µM
GI50 (TK-10 renal): 3.5 µM
TGI (TK-10 renal): 10.3 µM
GI50 ([…]-0 renal): 1.86 µM
TGI (786-0 renal): 3.5 µM
GI50 (SF-539 CNS): 2.02 µM
TGI (SF-539 CNS): 3.99 µM
GI50 (HCC-2998 colon): 2.14 µM
TGI (HCC-2998 colon): 7.68 µM
GI50 (SF-268 CNS): 1.31 µM
TGI (SF-268 CNS): 3.77 µM
GI50 (MDA-MB-468 breast): 1.9 µM
TGI (MDA-MB-468 breast): 3.7 µM
GI50 (HL-60(TB) leukemia): 1.25 µM
TGI (HL-60(TB) leukemia): 2.51 µM
GI50 (RPMI-8226 leukemia): 0.943 µM
TGI (RPMI-8226 leukemia): 2.49 µM
GI50 (OVCAR-4 ovarian): 4.1 µM
TGI (OVCAR-4 ovarian): 10.2 µM

O=C1CC(c2ccc(N3CCOCC3)cc2)(c2ccsc2)NC(=O)C1Sc1ccccc1Cl (stereo unspecified)
GI50 (SN12C renal): 4.53 µM
TGI (SN12C renal): 23.4 µM
GI50 (UACC-62 melanoma): 12.7 µM
TGI (UACC-62 melanoma): > 100 µM
GI50 (K-562 leukemia): 3.97 µM
TGI (K-562 leukemia): > 100 µM
GI50 (EKVX NSCLC): 98.9 µM
TGI (EKVX NSCLC): > 100 µM
GI50 (SR leukemia): 0.692 µM
TGI (SR leukemia): 1.74 µM
GI50 (LOX IMVI melanoma): 35.9 µM
TGI (LOX IMVI melanoma): > 100 µM
GI50 (HCT-15 colon): 63 µM
TGI (HCT-15 colon): > 100 µM
GI50 (HT29 colon): 62.7 µM
TGI (HT29 colon): > 100 µM
GI50 (HOP-62 NSCLC): 13.6 µM
TGI (HOP-62 NSCLC): > 100 µM
GI50 (HCT-116 colon): 36.8 µM
TGI (HCT-116 colon): > 100 µM
GI50 (PC-3 prostate): 43.6 µM
TGI (PC-3 prostate): > 100 µM
GI50 (SK-OV-3 ovarian): > 85.3 µM
TGI (SK-OV-3 ovarian): > 100 µM
GI50 (U251 glioblastoma): 5.73 µM
TGI (U251 glioblastoma): 65.7 µM
GI50 (NCI/ADR-RES ovarian): 19.4 µM
TGI (NCI/ADR-RES ovarian): 41.5 µM
GI50 (HOP-92 NSCLC): 3.34 µM
TGI (HOP-92 NSCLC): 18.7 µM
GI50 (HS 578T breast): 1.76 µM
TGI (HS 578T breast): 3.69 µM
GI50 (MDA-MB-231 breast): 13.9 µM
TGI (MDA-MB-231 breast): > 100 µM
GI50 (ACHN renal): 33 µM
TGI (ACHN renal): 98.7 µM
GI50 (NCI-H226 lung): 50.3 µM
TGI (NCI-H226 lung): > 100 µM
GI50 (MALME-3M melanoma): > 51.2 µM
TGI (MALME-3M melanoma): > 100 µM
GI50 (MDA-MB-435 melanoma): > 100 µM
TGI (MDA-MB-435 melanoma): > 100 µM
GI50 (SW-620 colon): 16.7 µM
TGI (SW-620 colon): > 51.8 µM
GI50 (SNB-19 CNS): 16.9 µM
TGI (SNB-19 CNS): 63.8 µM
GI50 (RXF 393 renal): 2.58 µM
TGI (RXF 393 renal): 7.47 µM
GI50 (IGROV1 ovarian): 46.5 µM
TGI (IGROV1 ovarian): > 100 µM
GI50 (OVCAR-3 ovarian): 34.2 µM
TGI (OVCAR-3 ovarian): > 100 µM
GI50 (COLO 205 colon): > 100 µM
TGI (COLO 205 colon): > 100 µM
GI50 (MCF7 breast): > 73.7 µM
TGI (MCF7 breast): > 100 µM
GI50 (CCRF-CEM leukemia): 3.39 µM
TGI (CCRF-CEM leukemia): > 21.9 µM
GI50 (OVCAR-8 ovarian): 3.45 µM
TGI (OVCAR-8 ovarian): 18.2 µM
GI50 (SK-MEL-2 melanoma): > 56.1 µM
TGI (SK-MEL-2 melanoma): > 100 µM
GI50 (NCI-H522 lung): 6.42 µM
TGI (NCI-H522 lung): > 100 µM
GI50 (SK-MEL-5 melanoma): > 100 µM
TGI (SK-MEL-5 melanoma): > 100 µM
GI50 (OVCAR-5 ovarian): 67.7 µM
TGI (OVCAR-5 ovarian): > 100 µM
GI50 (SK-MEL-28 melanoma): 66.7 µM
TGI (SK-MEL-28 melanoma): > 100 µM
GI50 (KM12 colon): > 57.6 µM
TGI (KM12 colon): > 100 µM
GI50 (A498 renal): 18.5 µM
TGI (A498 renal): > 88.7 µM
GI50 (BT-549 breast): 3.71 µM
TGI (BT-549 breast): 28.3 µM
GI50 (TK-10 renal): 75.9 µM
TGI (TK-10 renal): > 100 µM
GI50 ([…]-0 renal): 2.71 µM
TGI (786-0 renal): > 21.3 µM
GI50 (SF-539 CNS): 23.3 µM
TGI (SF-539 CNS): > 100 µM
GI50 (HCC-2998 colon): > 100 µM
TGI (HCC-2998 colon): > 100 µM
GI50 (SF-268 CNS): 51.2 µM
TGI (SF-268 CNS): > 100 µM
GI50 (MDA-MB-468 breast): > 100 µM
TGI (MDA-MB-468 breast): > 100 µM
GI50 (HL-60(TB) leukemia): 2.82 µM
GI50 (RPMI-8226 leukemia): 10.5 µM
TGI (RPMI-8226 leukemia): 41.2 µM
GI50 (OVCAR-4 ovarian): 34 µM
TGI (OVCAR-4 ovarian): > 100 µM
